Earlier results, collected in patent publication US20070297988A1, “Optical probes for in vivo imaging” (priority 2006, published 2007).

What was measured:
[1] = administered intravenously
[2] = degradation accelerated by light and heat

plasmatic half-life [1]: 2 to 4 min
protein binding [1]: extensive protein binding
stability in aqueous solution [2]: degraded in aqueous solution
SMILES: CC1(C)C(/C=C/C=C/C=C/C=C2\N(CCCCS(=O)(=O)O)c3ccc4ccccc4c3C2(C)C)=[N+](CCCCS(=O)(=O)[O-])c2ccc3ccccc3c21 [ICG, indocyanine green]
